Test results reported in patent US20250326732A1 (Pretzel Therapeutics, Inc., priority 2021, published 2025).

Target: POLRMT (Homo sapiens (Human), UniProt O00411)
Assay: homogeneous TR-FRET assay of mitochondrial transcription (inhibition of POLRMT)
Type: biochemical
Conditions: 7.5 nM POLRMT, 15 nM TFB2M, 30 nM TFAM, 0.5 nM DNA template, 500 μM NTPs, 37° C. for 60 minutes
Protocol: The ability of some compounds of the present invention to inhibit POLRMT were determined in a homogeneous TR-FRET Assay using high-throughput screening in a 384-well plate format. […] Detection of the product is facilitated by hybridization of two DNA-oligonucleotide probes to specific and adjacent sequences within the RNA product sequence. Upon annealing of the probes, two fluorophores are coupled directly to an acceptor nucleotide probe (ATTO647, 5′), or introduced via a coupled streptavidin with a biotinylated donor nucleotide probe (Europium cryptate) that is brought into sufficient proximity to serve as a fluorescence-donor-acceptor pair. Thus, a FRET signal at 665 nm is generated upon excitation at 340 nm.
The DNA template is restriction linearized proximal to the promotor 3′-end (pUC-LSP). […] No nucleotide triphosphate mix is added to negative control samples. Microplates with compounds to be tested in the assay are prepared from 10 mM compound stocks in 100% DMSO, equal amounts of DMSO without any compound are added to positive control and negative control samples.
During the incubation, a mix of the detection reagents is prepared in a buffer such that the enzymatic reaction is terminated due to chelating of Mg-ions and increased ionic strength, containing 50 mM Tris-HCl (pH 7.5), 700 mM NaCl, 20 mM EDTA, and 0.01% (w/v) Tween-20. Europium-streptavidin is pre-incubated with a 200-fold molar excess of a random sequence oligonucleotide to block unspecific binding of oligo, for two hours at ambient temperature in the dark. Afterwards, the blocked Europium-streptavidin is kept on ice until use.
At the end of the enzymatic reaction time, 5 μL detection oligo mix in the detection buffer is added, and assay plates are mixed and kept at ambient temperature for one hour, protected from light. The concentration of the Acceptor nucleotide oligo (e.g., ATTO647N-5′-[…]-3′) and Donor nucleotide oligo (e.g., bio-5′-[…](-bio)[…]-bio-3′) in each assay well is 1 nM, and 3 nM, respectively.
After incubation with oligo mix, 5 μL of pre-blocked Europium-streptavidin reagent is dispensed to each assay well, assay plates are again mixed and kept at ambient temperature for one hour, protected from light.
The generated signal is measured with BMG Pherastar microtiter plate reader with a TRF light unit, using excitation at 340 nm, an integration time of 200 μs, and a delay time of 100 μs, before detection at 620 nm and 665 nm. The ratio of donor- and acceptor-fluorescence is used as a measure of the generated transcript product (i.e. enzymatic activity).

Sequence of POLRMT (O00411 42-1230): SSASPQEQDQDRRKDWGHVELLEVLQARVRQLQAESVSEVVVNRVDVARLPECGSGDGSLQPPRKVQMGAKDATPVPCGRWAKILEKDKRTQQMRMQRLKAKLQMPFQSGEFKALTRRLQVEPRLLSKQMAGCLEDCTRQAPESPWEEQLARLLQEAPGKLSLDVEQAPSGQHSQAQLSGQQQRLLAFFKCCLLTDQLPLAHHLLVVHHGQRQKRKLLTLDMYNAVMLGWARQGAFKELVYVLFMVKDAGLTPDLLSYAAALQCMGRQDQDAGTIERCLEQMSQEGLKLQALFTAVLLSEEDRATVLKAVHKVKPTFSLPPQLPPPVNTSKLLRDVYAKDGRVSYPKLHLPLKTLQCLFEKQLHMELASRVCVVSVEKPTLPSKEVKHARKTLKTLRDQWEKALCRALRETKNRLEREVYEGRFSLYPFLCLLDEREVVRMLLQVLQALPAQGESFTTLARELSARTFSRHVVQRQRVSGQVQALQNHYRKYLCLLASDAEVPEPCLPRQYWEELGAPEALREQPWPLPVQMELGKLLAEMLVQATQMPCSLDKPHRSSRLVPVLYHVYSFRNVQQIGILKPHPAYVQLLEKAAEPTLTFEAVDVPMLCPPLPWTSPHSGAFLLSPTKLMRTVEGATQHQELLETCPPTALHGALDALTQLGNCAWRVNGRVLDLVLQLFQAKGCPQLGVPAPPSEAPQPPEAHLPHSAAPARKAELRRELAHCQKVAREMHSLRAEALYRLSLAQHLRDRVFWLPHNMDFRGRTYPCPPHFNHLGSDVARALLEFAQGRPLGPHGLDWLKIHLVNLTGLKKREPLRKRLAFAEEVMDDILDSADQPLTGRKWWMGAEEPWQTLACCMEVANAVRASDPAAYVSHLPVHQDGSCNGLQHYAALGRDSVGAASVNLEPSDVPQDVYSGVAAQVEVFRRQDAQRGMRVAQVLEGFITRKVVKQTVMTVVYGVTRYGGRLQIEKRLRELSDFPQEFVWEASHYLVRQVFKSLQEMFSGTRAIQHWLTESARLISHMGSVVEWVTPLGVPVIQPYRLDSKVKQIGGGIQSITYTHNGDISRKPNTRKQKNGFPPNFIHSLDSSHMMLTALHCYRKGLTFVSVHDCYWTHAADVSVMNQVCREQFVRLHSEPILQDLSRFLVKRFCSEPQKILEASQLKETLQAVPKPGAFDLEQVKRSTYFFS

**Q.** For `Cc1ccccc1-c1cc(=O)oc2cc(CC(C)C(=O)N3CC[C@H](C(=O)O)C3)ccc12` (single isomer, unassigned) [Example 100], which IC50 is on record?
**A.** Its IC50 is 21000 nM.

**Q.** How did the IC50 turn out when `Cc1ccccc1-c1cc(=O)oc2cc(N(C)[C@H](C)C(=O)N3CCC[C@H](C(=O)O)C3)ccc12` [Example 75, (S)-1-(N-methyl-N-(2-oxo-4-(o-tolyl)-2H-chromen-7-yl)-D-alanyl)piperidine-3-carboxylic acid] was run?
**A.** The IC50 was 30 nM.

**Q.** With `Cc1ccccc1-c1cc(=O)oc2cc(C(=O)N(C)C3CCCOC3)ccc12` (centres unmarked) [Example 117, N-methyl-2-oxo-N-(tetrahydro-2H-pyran-3-yl)-4-(o-tolyl)-2H-chromene-7-carboxamide] as the compound, how does the IC50 read?
**A.** The IC50 was 65000 nM.

**Q.** Which IC50 does the source give for `COCC(Cc1ccc2c(-c3ccccc3C)cc(=O)oc2c1)C(N)=O` (single isomer, unassigned) [Example 207, 3-methoxy-2-((2-oxo-4-(o-tolyl)-2H-chromen-7-yl)methyl)propanamide] here?
**A.** Its IC50 is 17000 nM.

**Q.** With `Cc1ccccc1-c1cc(=O)oc2cc(CC(C)C(=O)N(C)C)ccc12` (single isomer, unassigned) [Example 65, N,N,2-trimethyl-3-(2-oxo-4-(o-tolyl)-2H-chromen-7-yl)propanamide] as the compound, how does the IC50 read?
**A.** Its IC50 is 17000 nM.

**Q.** How did the IC50 turn out when `Cc1ccccc1-c1cc(=O)oc2cc(C(=O)NC3CCCC3)ccc12` [Example 36, N-cyclopentyl-2-oxo-4-(o-tolyl)-2H-chromene-7-carboxamide] was run?
**A.** Its IC50 is 2000 nM.

**Q.** With `Cc1ccc2c(-c3ccccc3C)cc(=O)oc2c1` [Example 39, 7-methyl-4-(o-tolyl)-2H-chromen-2-one] as the compound, how does the IC50 read?
**A.** The IC50 was 700 nM.

**Q.** `Cc1ccccc1-c1cc(=O)oc2cc(N(C)CC(C)C(=O)O)ccc12` (single isomer, unassigned) [Example 154-2] was tested. Which IC50 did it give?
**A.** Its IC50 is 500 nM.

**Q.** With `CNc1ccc2c(-c3ccc(F)cc3Cl)cc(=O)oc2c1` [Example 25, 4-(2-chloro-4-fluorophenyl)-7-(methylamino)-2H-chromen-2-one] as the compound, how does the IC50 read?
**A.** The IC50 was 400 nM.

**Q.** Which IC50 does the source give for `Cc1ccccc1-c1cc(=O)oc2cc(NCC3(C(=O)O)CC3)ccc12` [Example 216, 1-(((2-oxo-4-(o-tolyl)-2H-chromen-7-yl)amino)methyl)cyclopropane-1-carboxylic acid] here?
**A.** Its IC50 is 600 nM.

**Q.** How did the IC50 turn out when `Cc1ccccc1-c1cc(=O)oc2cc(NCC(=O)OC(C)(C)C)ccc12` [Example 61, tert-butyl (2-oxo-4-(o-tolyl)-2H-chromen-7-yl)glycinate] was run?
**A.** Its IC50 is 900 nM.

**Q.** `CCOC(=O)[C@H]1CCCN(C(=O)C(C)Cc2ccc3c(-c4ccccc4C)cc(=O)oc3c2)C1` (single isomer, unassigned) [Example 87] was tested. Which IC50 did it give?
**A.** The IC50 was 9000 nM.

**Q.** How did the IC50 turn out when `Cc1ccccc1-c1cc(=O)oc2cc(CC(C)C(=O)N3CCC[C@H](S(N)(=O)=O)C3)ccc12` (single isomer, unassigned) [Example 98] was run?
**A.** Its IC50 is 14000 nM.

**Q.** How did the IC50 turn out when `Cc1ccccc1-c1cc(=O)oc2cc(N(C)[C@H](C)CC(=O)O)ccc12` [Example 230, (R)-3-(methyl(2-oxo-4-(o-tolyl)-2H-chromen-7-yl)amino)butanoic acid] was run?
**A.** Its IC50 is 200 nM.

**Q.** How did the IC50 turn out when `Cc1ccccc1-c1cc(=O)oc2cc(N(C)CC(=O)NC3CCOCC3)ccc12` [Example 139, 2-(methyl(2-oxo-4-(o-tolyl)-2H-chromen-7-yl)amino)-N-(tetrahydro-2H-pyran-4-yl)acetamide] was run?
**A.** Its IC50 is 100 nM.

**Q.** How did the IC50 turn out when `Cc1ccc2c(-c3ccc(F)cc3Cl)cc(=O)oc2c1` [Example 03, 4-(2-chloro-4-fluorophenyl)-7-methyl-2H-chromen-2-one] was run?
**A.** Its IC50 is 19000 nM.

**Q.** How did the IC50 turn out when `Cc1ccccc1-c1cc(=O)oc2cc(N(C)CCC(=O)O)ccc12` [Example 144, 3-(methyl(2-oxo-4-(o-tolyl)-2H-chromen-7-yl)amino)propanoic acid] was run?
**A.** The IC50 was 100 nM.

**Q.** `Cc1ccccc1-c1cc(=O)oc2cc(C(=O)N3CCCCC3)ccc12` [Example 37, 7-(piperidine-1-carbonyl)-4-(o-tolyl)-2H-chromen-2-one] was tested. Which IC50 did it give?
**A.** Its IC50 is 1000 nM.

**Q.** How did the IC50 turn out when `CC(=O)NC1CCCN(C(=O)c2ccc3c(-c4ccccc4C)cc(=O)oc3c2)C1` (single isomer, unassigned) [Example 176, N-(1-(2-oxo-4-(o-tolyl)-2H-chromene-7-carbonyl)piperidin-3-yl)acetamide] was run?
**A.** Its IC50 is 75000 nM.

**Q.** Which IC50 does the source give for `CCOC(=O)C(C)Cc1ccc2c(-c3ccccc3C)cc(=O)oc2c1` (centres unmarked) [Example 51, ethyl 2-methyl-3-[4-(o-tolyl)-2-oxo-chromen-7-yl]propanoate] here?
**A.** The IC50 was 300 nM.

**Q.** `COCc1cc(C)c2c(-c3ccccc3C)cc(=O)oc2c1` [Example 163, 7-(methoxymethyl)-5-methyl-4-(o-tolyl)-2H-chromen-2-one] was tested. Which IC50 did it give?
**A.** The IC50 was 500 nM.

**Q.** `Cc1ccccc1-c1cc(=O)oc2cc(CC(C#N)CO)ccc12` (centres unmarked) [Example 200, 3-hydroxy-2-((2-oxo-4-(o-tolyl)-2H-chromen-7-yl)methyl)propanenitrile] was tested. Which IC50 did it give?
**A.** Its IC50 is 3000 nM.

**Q.** `CNC(=O)[C@@H]1C[C@@H]1c1ccc2c(-c3ccccc3C)cc(=O)oc2c1` (relative stereo) [Example 231, (cis)-N-methyl-2-(2-oxo-4-(o-tolyl)-2H-chromen-7-yl)cyclopropane-1-carboxamide] was tested. Which IC50 did it give?
**A.** The IC50 was 400 nM.

**Q.** With `Cc1ccccc1-c1cc(=O)oc2cc(N(C)CC(C)(C)C(=O)O)ccc12` [Example 128, 2,2-dimethyl-3-(methyl(2-oxo-4-(o-tolyl)-2H-chromen-7-yl)amino)propanoic acid] as the compound, how does the IC50 read?
**A.** The IC50 was 30 nM.

**Q.** For `CCOC(=O)[C@H]1CCCN(C(=O)N(C)Cc2ccc3c(-c4ccc(F)cc4Cl)cc(=O)oc3c2)C1` [Example 07, ethyl (S)-1-(((4-(2-chloro-4-fluorophenyl)-2-oxo-2H-chromen-7-yl)methyl)(methyl)carbamoyl)piperidine-3-carboxylate], which IC50 is on record?
**A.** The IC50 was 7000 nM.

**Q.** For `Cc1ccccc1-c1cc(=O)oc2cc(N(C)CC(=O)NCCO)ccc12` [Example 219, N-(2-hydroxyethyl)-2-(methyl(2-oxo-4-(o-tolyl)-2H-chromen-7-yl)amino)acetamide], which IC50 is on record?
**A.** The IC50 was 200 nM.

**Q.** `Cc1ccccc1-c1cc(=O)oc2cc(C(C)N)ccc12` (centres unmarked) [Example 91, 7-(1-aminoethyl)-4-(o-tolyl)-2H-chromen-2-one] was tested. Which IC50 did it give?
**A.** Its IC50 is 20000 nM.

**Q.** `Cc1ccccc1-c1cc(=O)oc2cc(CN(C)C(=O)N3CCC[C@H](C(=O)O)C3)ccc12` [Example 146, (S)-1-(methyl((2-oxo-4-(o-tolyl)-2H-chromen-7-yl)methyl)carbamoyl)piperidine-3-carboxylic acid] was tested. Which IC50 did it give?
**A.** Its IC50 is 300 nM.

**Q.** With `Cc1ccccc1-c1cc(=O)oc2cc(CC(C)C(=O)N3CCCCC3)ccc12` (single isomer, unassigned) [Example 63, 7-(2-methyl-3-oxo-3-(piperidin-1-yl)propyl)-4-(o-tolyl)-2H-chromen-2-one] as the compound, how does the IC50 read?
**A.** The IC50 was 3000 nM.

**Q.** Which IC50 does the source give for `Cc1ccccc1-c1cc(=O)oc2cc(N[C@H](C)C(=O)N3CCC[C@H](C(=O)O)C3)ccc12` [Example 80, (S)-1-((2-oxo-4-(o-tolyl)-2H-chromen-7-yl)-D-alanyl)piperidine-3-carboxylic acid] here?
**A.** The IC50 was 100 nM.

**Q.** `Cc1ccccc1-c1cc(=O)oc2cc(CC(C)C(N)=O)ccc12` (single isomer, unassigned) [Example 68, 2-methyl-3-(2-oxo-4-(o-tolyl)-2H-chromen-7-yl)propanamide] was tested. Which IC50 did it give?
**A.** Its IC50 is 600 nM.

**Q.** For `Cc1ccccc1-c1cc(=O)oc2cc(N(C)CC(=O)O)ccc12` [Example 76, N-methyl-N-(2-oxo-4-(o-tolyl)-2H-chromen-7-yl)glycine], which IC50 is on record?
**A.** The IC50 was 200 nM.

**Q.** How did the IC50 turn out when `Cc1ccccc1-c1cc(=O)oc2cc(N(C)CC(C)C(=O)O)ccc12` (centres unmarked) [Example 155-2] was run?
**A.** Its IC50 is 400 nM.

**Q.** Which IC50 does the source give for `Cc1ccccc1-c1cc(=O)oc2cc(CN(C)C(=O)C3CCC(C(=O)O)CC3)ccc12` [Example 156, (1R,4R)-4-(methyl((2-oxo-4-(o-tolyl)-2H-chromen-7-yl)methyl)carbamoyl)cyclohexane-1-carboxylic acid] here?
**A.** Its IC50 is 200 nM.

**Q.** How did the IC50 turn out when `CN(CC(=O)O)c1ccc2c(-c3ccc(F)cc3Cl)cc(=O)oc2c1` [Example 105, N-(4-(2-chloro-4-fluorophenyl)-2-oxo-2H-chromen-7-yl)-N-methylglycine] was run?
**A.** The IC50 was 500 nM.

**Q.** How did the IC50 turn out when `Cc1ccccc1-c1cc(=O)oc2cc(NC(C)C(N)=O)ccc12` (single isomer, unassigned) [Example 189, 2-((2-oxo-4-(o-tolyl)-2H-chromen-7-yl)amino)propanamide] was run?
**A.** Its IC50 is 900 nM.

**Q.** How did the IC50 turn out when `Cc1ccccc1-c1cc(=O)oc2cc(NCC(=O)N3CCC[C@H](C(=O)O)C3)ccc12` [Example 79, (S)-1-((2-oxo-4-(o-tolyl)-2H-chromen-7-yl)glycyl)piperidine-3-carboxylic acid] was run?
**A.** Its IC50 is 2000 nM.

**Q.** How did the IC50 turn out when `Cc1ccccc1-c1cc(=O)oc2cc(CC(C)C(=O)N3CCC[C@H](C(N)=O)C3)ccc12` (single isomer, unassigned) [Example 89] was run?
**A.** The IC50 was 100 nM.
